Measured values: PMC11279551, “Pharmacokinetics and Enterohepatic Circulation of 2-(Quinoline-8-carboxamido)benzoic Acid (2-QBA) in Mice” (Pharmaceutics, 2024)
Read-outs that look alike come from different tables or passages of the source.

Legend:
[1] = Effect of activated charcoal (AC) on the pharmacokinetics of 2-QBA; type: in vivo; details: mice; for AUC(0-t): read-out: AUC24h
Experimental: To elucidate the reabsorption mechanism of 2-QBA, a pharmacokinetic study of 2-QBA was conducted with activated charcoal (AC) administered PO. Male ICR mice (7 weeks old, 25–30 g) were fasted for 14–16 h prior to the administration of 2-QBA.
In total, […] were administered 2-QBA (1 mg/kg/3 mL) via the tail vein. Two hours after the 2-QBA dosing, AC (0.8 g/kg/5 mL in distilled water) or a vehicle (5 mL/kg distilled water) was administrated via oral gavage. Each group included ten mice who were randomly divided into two groups for sparse sampling. Blood collection was performed at 0.083, 0.5, 2, and 8 h from 5 mice and at 0.25, 1, 4, and 24 h from another 5 mice, as described previously. Four mice treated with either AC (0.8 g/kg) or the vehicle 2 h after the 2-QBA IV dosing (1 mg/kg) were returned to a metabolic cage to collect the urine and feces samples. The urine and feces samples were collected for 72 h.
Next, 2-QBA was administered PO (2 mg/kg/5 mL) with or without AC (0.8 g/kg in 3 mL of DW), which was administered via oral gavage 2 h after the 2-QBA dosing. Each group included eight mice who were randomly divided into two groups for sparse sampling. Blood collection was performed at 0.25, 0.75, 2, and 8 h from 4 mice and at 0.5, 1, 4, and 24 h from another 4 mice, as described previously. Four mice treated with either AC (0.8 g/kg) or vehicle 2 h after the 2-QBA PO dosing (2 mg/kg) were returned to a metabolic cage to collect the urine and feces samples. The urine and feces samples were collected for 72 h.
Aliquots of plasma samples (30 μL) were added to 120 μL of IS solution. The mixture was vigorously vortexed for 5 min and then centrifuged at 13,000× g for 5 min. The supernatant was transferred to autosampler vials. Subsequently, a 3 μL aliquot was injected into the LC-MS/MS system. Aliquots (30 μL) of urine and 10% feces homogenate samples were added to 60 μL of 150 mM sodium acetate buffer (pH 5.0) in the presence or absence of β-glucuronidase (900 unit) at 37 °C for 2 h. The reaction was quenched by adding four volumes of ice-cold IS solution. The mixture was vigorously vortexed for 5 min, followed by centrifugation at 13,000× g for 5 min. The supernatant was transferred to autosampler vials and subsequently a 3 μL aliquot was injected into the LC-MS/MS system.
(§1) WinNonlin 5.1 software (Pharsight Co., Mountain View, CA, USA) was used to calculate the pharmacokinetic parameters. AUClast and AUCinf indicate the areas under the plasma concentration curve from 0 h to the last sample and from 0 h to infinity, respectively; these were estimated using the linear trapezoidal method. T1/2 is the elimination half-life, which is estimated from the elimination coefficient (k) (i.e., 0.693/k), and MRT is the mean residence time. CL is the total clearance, which is calculated by dividing the dose by AUCinf. Vdss is the volume of the distribution at a steady state, calculated from MRTxCL. CLrenal and CLfeces are calculated by dividing the amount excreted in urine and feces by the AUCinf, respectively. CLmetabolism is calculated by subtracting CLrenal and CLfeces from CL. Cmax and Tmax are the maximum plasma concentration and time to reach Cmax, respectively. BA is calculated by dividing the dose-normalized AUCinf for PO administration (AUCinf/PO dose) by the dose-normalized AUCinf for IV administration (AUCinf/IV dose). All data are expressed as the mean ± standard deviation (SD).

[2] = Pharmacokinetics after IV administration in mice; type: in vivo; details: plasma; for AUC(0-inf) / MRT / clearance / half-life / AUC(0-t) / Vd: male, ICR, mouse; for AUC(0-t): read-out: AUC24h; for Vd: read-out: Vdss
Experimental: Male ICR mice (7 weeks old, […]; Samtako, Osan, Korea) were acclimated to the animal facility at Kyungpook National University for one week with free access to animal chow and water. In the per oral administration (PO) groups, the mice were fasted for 14–16 h prior to the administration of 2-QBA.
For intravenous (IV) administration, 2-QBA (0.5 mg/kg in 3 mL of saline containing 10% DMSO) was injected via the tail vein for eight mice that were randomly divided into two groups for sparse sampling. Blood samples were collected via the jugular vein at 0.083, 0.5, 2, and 8 h from 4 mice and at 0.25, 1, 4, and 24 h from another 4 mice. Eight mice were administered 1 mg/kg of 2-QBA using the same protocol described above.
After the PO administration of 2-QBA (2 mg/kg in 5 mL of saline containing 10% DMSO) using an oral gavage for 10 mice, blood samples were collected at 0.25, 0.75, 2, and 8 h from 5 mice and at 0.5, 1, 4, and 24 h from another 5 mice. Ten mice in each group were administered 5 mg/kg or 15 mg/kg of 2-QBA using an oral gavage and blood was drawn using the same protocol described above. All blood samples were centrifuged at 13,000× g for 1 min and the supernatant plasma (30 μL) was stored at −80 °C until the analysis of the 2-QBA. For the analysis of 2-QBA in the plasma samples, 120 μL of IS solution (berberine 1 ng/mL in acetonitrile) was added to plasma samples (30 μL). The mixture was vigorously vortexed for 5 min and then centrifuged at 13,000× g for 5 min. The supernatant was transferred to autosampler vials. Subsequently, a 3 μL aliquot was injected into the LC-MS/MS system.
as §1

[3] = male, ICR, mouse, plasma, iv, 1 mg/kg, IV 1 mg/kg, AC (0.8 g/kg)
[4] = male, ICR, mouse, plasma, iv, 1 mg/kg, IV 1 mg/kg, Control
[5] = male, ICR, mouse, plasma, po, 2 mg/kg, PO 2 mg/kg, AC (0.8 g/kg)
[6] = male, ICR, mouse, plasma, po, 2 mg/kg, PO 2 mg/kg, Control

- AUC(0-t) ([1]; male, ICR, mouse, plasma, intravenous, 1 mg/kg, IV 1 mg/kg, AC (0.8 g/kg) PO 2 h after dosing): 1180 ± 264 ng·h/mL
- AUC(0-inf) [1, 3]: 1210 ± 293 ng·h/mL
- MRT [1, 3]: 2.48 ± 2.56 h
- clearance [1, 3]: 14.5 ± 3.95 mL/min/kg
- half-life [1, 3]: 3.18 ± 2.52 h
- AUC(0-inf) [1, 4]: 1330 ± 422 ng·h/mL
- MRT [1, 4]: 2.88 ± 1.14 h
- clearance [1, 4]: 13.9 ± 5.41 mL/min/kg
- half-life [1, 4]: 3.88 ± 1.72 h
- AUC(0-t) ([1]; male, ICR, mouse, plasma, iv, 1 mg/kg, IV 1 mg/kg, Control (vehicle 2 h after dosing)): 1270 ± 361 ng·h/mL
- AUC(0-inf) [1, 5]: 836 ± 209 ng·h/mL
- MRT [1, 5]: 7 ± 2.48 h
- half-life [1, 5]: 5.5 ± 2.24 h
- Cmax ([1]; male, ICR, mouse, plasma, po, 2 mg/kg, PO 2 mg/kg, AC (0.8 g/kg) 2 h after dosing): 315 ± 106 ng/mL
- AUC(0-t) [1, 5]: 650 ± 305 ng·h/mL
- AUC(0-inf) [1, 6]: 2110 ± 608 ng·h/mL
- Cmax [1, 6]: 399 ± 90.7 ng/mL
- MRT [1, 6]: 8.49 ± 3.08 h
- half-life [1, 6]: 6.05 ± 2.04 h
- AUC(0-t) [1, 6]: 1930 ± 453 ng·h/mL
- Tmax ([1]; male, ICR, mouse, plasma, PO 2 mg/kg, Control): 0.25 h
- BA ([1]; PO 2 mg/kg, AC (0.8 g/kg)): 34.5%
- BA ([1]; PO 2 mg/kg, Control): 79.8%
- AUC24h/dose ([2]; IV 0.5 mg/kg): 824.7 ± 64.1 ng·h/mL/mg/kg
- AUCinf/dose ([2]; IV 0.5 mg/kg): 835.6 ± 64.6 ng·h/mL/mg/kg
- AUC24h/dose ([2]; IV 1.0 mg/kg): 996.7 ± 146.6 ng·h/mL/mg/kg
- AUCinf/dose ([2]; IV 1.0 mg/kg): 1044 ± 174.9 ng·h/mL/mg/kg
- AUC(0-inf) ([2]; IV 0.5 mg/kg): 418 ± 32.3 ng·h/mL
- MRT ([2]; IV 0.5 mg/kg): 3.88 ± 1.58 h
- clearance ([2]; IV 0.5 mg/kg): 20 ± 1.53 mL/min/kg
- half-life ([2]; IV 0.5 mg/kg): 4.61 ± 2.19 h
- AUC(0-t) ([2]; IV 0.5 mg/kg): 412 ± 32.1 ng·h/mL
- Vd ([2]; IV 0.5 mg/kg): 4.73 ± 2.15 L/kg
- AUC(0-inf) ([2]; IV 1.0 mg/kg): 1040 ± 175 ng·h/mL
- MRT ([2]; IV 1.0 mg/kg): 3.03 ± 1.11 h
- clearance ([2]; IV 1.0 mg/kg): 16.3 ± 2.81 mL/min/kg
- half-life ([2]; IV 1.0 mg/kg): 5.26 ± 1.31 h
- AUC(0-t) ([2]; IV 1.0 mg/kg): 997 ± 147 ng·h/mL
- Vd ([2]; IV 1.0 mg/kg): 2.88 ± 0.72 L/kg
SMILES: O=C(O)c1ccccc1NC(=O)c1cccc2cccnc12 [2-QBA, 2-(quinoline-8-carboxamido)benzoic acid]
